Measurements from patent publication USRE39420E1, “1,2-Diphenylpyrrole derivatives, their preparation and their therapeutic uses” (Sankyo Company, Limited, priority 1996, dated 2006).

Tests used:
[1] = biological target: T1, Human Recombinant Cyclooxygenase-2 (Homo sapiens, UniProt P35354); experiment: Inhibitory activity on human recombinant cyclooxygenase-2 microsomes from COS cells (PGE2 ELISA); type: biochemical; conditions: for IC50: human recombinant COX-2 microsomes, PGE2 formation, read-out: Inhibitory Effect on COX-2 [IC50 (μM)]
T1 construct: made in house; host or cells: COS cells (transient expression; microsomes prepared after 66 hours)
T1 sequence (P35354 18-604): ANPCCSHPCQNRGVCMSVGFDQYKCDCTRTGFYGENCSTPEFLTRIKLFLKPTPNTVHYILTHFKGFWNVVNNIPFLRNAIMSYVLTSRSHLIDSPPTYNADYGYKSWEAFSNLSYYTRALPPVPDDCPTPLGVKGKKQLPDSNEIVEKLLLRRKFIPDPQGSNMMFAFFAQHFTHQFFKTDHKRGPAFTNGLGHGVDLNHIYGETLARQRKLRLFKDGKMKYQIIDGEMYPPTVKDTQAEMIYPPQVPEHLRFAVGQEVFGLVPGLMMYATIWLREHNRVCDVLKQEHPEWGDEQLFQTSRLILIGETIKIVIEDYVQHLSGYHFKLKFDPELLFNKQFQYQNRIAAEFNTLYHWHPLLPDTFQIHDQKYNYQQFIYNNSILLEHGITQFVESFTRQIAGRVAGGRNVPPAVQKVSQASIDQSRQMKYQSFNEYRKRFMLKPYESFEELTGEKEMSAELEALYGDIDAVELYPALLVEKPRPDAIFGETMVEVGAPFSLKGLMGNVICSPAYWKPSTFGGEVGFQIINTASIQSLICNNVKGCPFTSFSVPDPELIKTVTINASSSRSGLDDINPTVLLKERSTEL
Description: In order to prepare cyclooxygenase-1 (COX-1) microsomes, ram seminal vesicles were homogenised by a blender. To prepare cyclooxygenase-2 (COX-2) microsomes, an expression vector which contains the human COX-2 gene was introduced into COS cells. The cells were homogenised by sonication after 66 hours cultivation. Microsomes were then prepared in accordance with conventional methods.
Enzyme activity was assayed as follows.
(§1) The assay mixture contained 10 μl of COX-1 or COX-2 microsomes (5 to 15 μg), 2 μl of sample dissolved in dimethyl sulfoxide, 50 μl of 200 mM Tris (pH 7.6), 10 μl of 20 mM reduced glutathione, 10 μl of 10 mM epinephrine, and 15.5 μl of distilled water. After preincubation at 37° C. for 15 minutes, 2.5 μl of 10 μM arachidonic acid (dissolved in ethanol) were then added to the mixture (final volume of 100 μl) and allowed to react at 37° C. for 30 minutes. The final dimethyl sulfoxide and ethanol concentrations were 2% and 2.5%, respectively. To the reaction mixture were then added 15 μl of ice-cooled 0.2M HCl to stop the reaction, and the mixture was cooled at 4° C. for 5 minutes. 15 μl of a 0.2M aqueous solution of sodium hydroxide were then added to the reaction mixture to neutralise the pH. The amount of PGE2, in the reaction mixture was measured using a commercially available ELISA kit (Cayman). IC50 was calculated from the regression line determined by the inhibition rates of PGE2 formation and the concentrations of the compound.

[2] = biological target: T2, Cyclooxygenase-1 from Ram Seminal Vesicle Microsomes (RSVM) (Ovis aries, UniProt P05979); experiment: Inhibitory activity on cyclooxygenase-1 from ram seminal vesicle microsomes (PGE2 ELISA); type: biochemical; conditions: PGE2 formation, read-out: Inhibitory Effect on COX-1[IC50(μM)]
T2 construct: ram seminal vesicles were homogenised by a blender; from tissue; host or cells: ram seminal vesicles (microsomes)
T2 sequence (P05979 25-600): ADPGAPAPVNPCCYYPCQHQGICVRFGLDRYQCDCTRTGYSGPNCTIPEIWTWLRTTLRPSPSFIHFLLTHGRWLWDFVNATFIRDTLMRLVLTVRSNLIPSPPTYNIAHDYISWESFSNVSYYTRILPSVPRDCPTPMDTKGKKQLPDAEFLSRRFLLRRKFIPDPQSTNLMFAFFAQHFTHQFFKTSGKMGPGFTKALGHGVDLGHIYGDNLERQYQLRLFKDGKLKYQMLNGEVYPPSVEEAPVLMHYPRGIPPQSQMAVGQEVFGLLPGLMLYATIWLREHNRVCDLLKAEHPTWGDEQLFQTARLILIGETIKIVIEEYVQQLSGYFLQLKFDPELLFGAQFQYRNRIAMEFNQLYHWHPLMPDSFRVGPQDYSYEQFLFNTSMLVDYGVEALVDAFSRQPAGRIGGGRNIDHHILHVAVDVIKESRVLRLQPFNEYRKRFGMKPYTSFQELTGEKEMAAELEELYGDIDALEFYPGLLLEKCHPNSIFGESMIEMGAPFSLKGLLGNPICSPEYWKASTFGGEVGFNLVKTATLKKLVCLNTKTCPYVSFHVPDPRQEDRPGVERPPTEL
Description: as §1, with “In order to prepare cyclooxygenase-1 (COX-1) microsomes, ram seminal vesicles were homogenised by a blender. To prepare cyclooxygenase-2 (COX-2) microsomes, an expression vector which contains the human COX-2 gene was introduced into COS cells. The cells were homogenised by sonication after 66 hours cultivation. Microsomes were then prepared in accordance with conventional methods. Enzyme activity was assayed as follows. The assay” for “The assay”

[3] = system: Carrageenan-induced Paw Edema in rats; experiment: Carrageenan-induced paw edema test; type: in vivo, Wistar-Imamichi rats; conditions: Rattus norvegicus, oral, 3 hours after carrageenan, read-out: Inhibition Rate (%)
Procedure, shortened: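 Male Wistar-Imamichi rats (6 weeks, 110-120 g), fasted 16 h, dosed orally 30 min before subplantar injection of 1% carrageenan into right hind paw. Paw volume measured by plethysmometer before dosing and 3 h after carrageenan; edema intensity = (volume at 3 h/volume before injection) − 1.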

| IC50 [1] [µM] | Selectivity (COX-1/COX-2) ([1]; ratio of IC50 COX-1/COX-2) | IC50 [2] [µM] | Compound | inhibition in vivo at 50 mg/kg [3] [%] |
| --- | --- | --- | --- | --- |
| 0.016 | >6250 | > 100 | COc1ccc(-c2cc(C)cn2-c2ccc(S(N)(=O)=O)cc2)cc1 [Example 52, 2-(4-Methoxyphenyl)-4-methyl-1-(4-sulfamoylphenyl)pyrrole] | 65 |
| > 100 |  | > 100 | Cc1ccc(-c2ccccc2)n1-c1ccc(S(N)(=O)=O)cc1 [Compound A, 5-methyl-2-phenyl-1-(4-sulfamoylphenyl)pyrrole, reference compound] | 14 |
